pEC50, pIC50: −log10 of the molar value.
Assays:
NPEPPS = target: T1, NPEPPS (Homo sapiens, UniProt P55786); assay: Cell-based NPEPPS activity assay (Q-AMC fluorescence); conditions: log10 transformed; EC50 = concentration that elevates 50% NPEPPS activity (150% of DMSO baseline); HEK293T cells
T1 construct: endogenous in cells; host or cells: HEK293T
Protocol: HEK293T cells (AATC) were maintained in a complete media containing DMEM (Gibco 11995-065) in the presence of 10% fetal bovine serum (FBS, Gibco 10082147), […] penicillin and 50 μg/ml streptomycin (Gibco 15140163) at 37° C. with 5% CO2. NPEPPS activity assay was conducted in a fresh-prepared minimal medium containing essential amino acids, vitamin, AlbuMax (Invitrogen 11021-029) in 1×HBS buffer. Black wall, clear bottom 384-well assay plates (Greiner EK-30092) were coated with poly-L-ornithine (0.1 mg/ml, Sigma P3655) overnight and washed once with 1×PBS. 15 μl minimal medium was then added to each well. 250 nL of compounds dissolved in OmniSolve methylsulfoxide (dimethyl sulfoxide, DMSO, Sigma MX1456P) were pinned to each well via Biomek FX^P Liquid Handling Automation (Beckman Coulter) from compound source plates, i.e., either pre-made compound libraries or JMM compounds (20-step, 2-fold dilution) dissolved in OmniSolve DMSO prepared via Biomek automation in 384-well clear V-bottom polypropylene microplates (ThermoScientific 50-823-639). Cells were harvested, resuspended in minimal medium, and seeded at 16,500 cells/15 μl/well in the 384-well assay plates. 24 hrs later, 30 μl 200 μM H-Gln-AMC hydrobromide salt (Q-AMC, Bachem #I-1175) in 1×HBS containing 0.1% DMSO was added into each well. The fluorescent signal at excitation/emission wavelengths of 360/460 nm was measured immediately upon Q-AMC addition and 3 hrs post-Q-AMC. The change in fluorescence is measured as a readout of NPEPPS activity.
To identify small molecules that either increase NPEPPS levels or NPEPPS activity, a cell-based NPEPPS activity assay amenable to high-throughput screening (HTS) by adapting a fluorescent peptidase activity assay^2 was developed. Since NPEPPS is one of the only aminopeptidases capable of cleaving glutamine-peptide bonds^3 and the major aminopeptidase responsible for degradation of poly-glutamine sequences in the brain^4, a fluorogenic compound, glutamine-7-amino-4-methylcoumarin (Q-AMC), was selected as a substrate to measure NPEPPS activity. The peptide bond of Q-AMC is hydrolyzed by NPEPPS to release glutamine and a fluorescent product, 7-amino-4-methylcoumarin (AMC), when Q-AMC is added directly to the cell culture media. This change in fluorescence is measured as a readout of aminopeptidase activity (FIG. 2A). Overexpression of NPEPPS in HEK293T cells results in a significant increase in fluorescence, whereas knock-down or chemical inhibition of NPEPPS decrease fluorescence change (FIG. 2B-D), validating that the changes in fluorescence observed in the Q-AMC-based assay directly correlate with changes in NPEPPS activity. A high-throughput (HTS) screen (201,845 compounds) was conducted at the UCLA MSSR core (FIG. 2E). Follow-up assays and chemical clustering identified three series of compounds with distinct chemical clusters (FIG. 2F).
To investigate the effects of JMM compounds that enhance NPEPPS activity and assess their cellular toxicity, 139 compounds in the JMM series (i.e., JMM001-JMM139) were tested in dose responses (20-step, 2-fold dilution) using NPEPPS activity and viability assays in HEK293T cells. 76 compounds harboring different modifications produce concentration-dependent enhancement on NPEPPS activity compared to DMSO control (FIG. 4). […] A therapeutic index (TI, a ratio of IC50 over EC50) is used to evaluate the relative safety profiles of the compounds. […] 16 JMM compounds show both improved potency and reduced toxicity (EC50<10 μM and TI>10, Table 1).

HEK293T cells = assay: Cell viability assay (CellTiter Glo); format: cell-based, human; conditions: for pIC50: Homo sapiens, HEK-293T, log10 transformed, IC50 = concentration that suppresses 50% cell viability, HEK293T cells; for Therapeutic index: ratio of IC50 (cell viability) over EC50 (NPEPPS activity)
Method in brief: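 HEK293T cells seeded at 16,500 per well on poly-L-ornithine in minimal medium with amino acids, vitamins and AlbuMax in HBS, with compound added as a 20-step 2-fold dilution. CellTiter Glo luminescence was read after 24 h. Viability is the signal normalized to DMSO control.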

T1 sequence (P55786 whole entry): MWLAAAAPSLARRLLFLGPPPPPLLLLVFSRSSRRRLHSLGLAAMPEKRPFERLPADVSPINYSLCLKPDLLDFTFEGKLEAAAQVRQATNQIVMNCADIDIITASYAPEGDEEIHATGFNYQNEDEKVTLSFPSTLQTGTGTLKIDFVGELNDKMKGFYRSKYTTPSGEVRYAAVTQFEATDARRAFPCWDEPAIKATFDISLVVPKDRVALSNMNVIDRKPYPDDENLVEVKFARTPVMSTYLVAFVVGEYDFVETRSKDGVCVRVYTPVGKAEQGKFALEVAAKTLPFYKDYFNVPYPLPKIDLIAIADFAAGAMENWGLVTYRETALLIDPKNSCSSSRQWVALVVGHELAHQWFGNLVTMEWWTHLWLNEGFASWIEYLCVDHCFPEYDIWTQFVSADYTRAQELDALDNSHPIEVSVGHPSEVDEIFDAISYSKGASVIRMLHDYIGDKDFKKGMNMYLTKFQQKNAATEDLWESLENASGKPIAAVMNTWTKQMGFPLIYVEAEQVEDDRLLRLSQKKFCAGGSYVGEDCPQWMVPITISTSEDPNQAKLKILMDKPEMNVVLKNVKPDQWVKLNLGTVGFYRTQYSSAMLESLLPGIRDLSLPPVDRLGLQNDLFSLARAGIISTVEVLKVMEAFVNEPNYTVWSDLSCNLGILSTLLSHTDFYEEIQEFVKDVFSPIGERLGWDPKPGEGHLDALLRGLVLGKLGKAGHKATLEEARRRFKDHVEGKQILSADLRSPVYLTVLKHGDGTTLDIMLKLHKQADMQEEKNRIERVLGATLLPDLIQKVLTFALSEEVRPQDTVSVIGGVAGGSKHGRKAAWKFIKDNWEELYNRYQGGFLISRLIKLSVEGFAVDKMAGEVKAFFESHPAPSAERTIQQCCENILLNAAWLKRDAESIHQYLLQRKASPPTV

O=[N+]([O-])c1ccc(CNc2nsc3ccccc23)cc1 [JMM043]
pEC50 (NPEPPS): 4.09
pIC50 (HEK293T cells): 3.51
Therapeutic index (HEK293T cells): 3.79

COc1ccc(COc2nsc3ccccc23)cc1OC [JMM104]
pEC50 (NPEPPS): 3.98
pIC50 (HEK293T cells): 4.20
Therapeutic index (HEK293T cells): 0.60

FC(F)(F)c1ccc(CNc2noc3ccccc23)cc1 [JMM039]
pEC50 (NPEPPS): 4.69
pIC50 (HEK293T cells): 4.21
Therapeutic index (HEK293T cells): 3.03

Clc1ccc(CNc2nsc3ccccc23)cc1Cl [JMM021]
pEC50 (NPEPPS): 4.49
pIC50 (HEK293T cells): 4.23
Therapeutic index (HEK293T cells): 1.80

CN(Cc1ccc(Cl)c(Cl)c1)c1nsc2ccc(OCc3ccccc3)cc12 [JMM093]
pEC50 (NPEPPS): 5.30
pIC50 (HEK293T cells): 4.69
Therapeutic index (HEK293T cells): 4.06

Fc1ccc(NCc2ccc(C(F)(F)F)cc2)nc1 [JMM045]
pEC50 (NPEPPS): 4.27
pIC50 (HEK293T cells): 3.73
Therapeutic index (HEK293T cells): 3.49

CN(Cc1ccc(OCc2ccccc2)cc1)c1nsc2ccc(OCc3ccccc3)cc12 [JMM088]
pEC50 (NPEPPS): 6.01
pIC50 (HEK293T cells): 4.01
Therapeutic index (HEK293T cells): 100.53

CC(Nc1nsc2ccccc12)c1ccccc1 (stereo not drawn) [JMM075]
pEC50 (NPEPPS): 3.70
pIC50 (HEK293T cells): 3.88
Therapeutic index (HEK293T cells): 0.65

COc1ccc(C(=O)Nc2nsc3ccccc23)cc1 [JMM004]
pEC50 (NPEPPS): 3.39
pIC50 (HEK293T cells): 3.43
Therapeutic index (HEK293T cells): 0.90

FC(F)(F)c1ccc(CNc2ncccn2)cc1 [JMM049]
pEC50 (NPEPPS): 4.25
pIC50 (HEK293T cells): 3.79
Therapeutic index (HEK293T cells): 2.93

c1ccc2c(NCc3ccncc3)nsc2c1 [JMM012]
pEC50 (NPEPPS): 3.83
pIC50 (HEK293T cells): 3.90
Therapeutic index (HEK293T cells): 0.86

COc1ccc(CNc2nsc3ccc(OC)cc23)cc1 [JMM097]
pEC50 (NPEPPS): 3.40
pIC50 (HEK293T cells): 3.64
Therapeutic index (HEK293T cells): 0.57

Fc1ccc2snc(NCc3ccc(C(F)(F)F)cc3)c2c1 [JMM139, 5-Fluoro-N-(4-(trifluoromethyl)benzyl)benzo[d]isothiazol-3-amine]
pEC50 (NPEPPS): 4.57
pIC50 (HEK293T cells): 4.44
Therapeutic index (HEK293T cells): 1.36

CCN(Cc1ccc(C(F)(F)F)cc1)c1nsc2ccccc12 [JMM092]
pEC50 (NPEPPS): 4.35
pIC50 (HEK293T cells): 3.90
Therapeutic index (HEK293T cells): 2.84

c1ccc(COc2ccc3snc(NCc4ccc(OCc5cccc6ccccc56)cc4)c3c2)cc1 [JMM106, 5-(Benzyloxy)-N-(4-(naphthalen-1-ylmethoxy)benzyl)benzo[d]isothiazol-3-amine]
pEC50 (NPEPPS): 3.90
pIC50 (HEK293T cells): 3.10
Therapeutic index (HEK293T cells): 6.26

c1ccc(COc2ccc3snc(NCc4ccc(OCC5CCC5)cc4)c3c2)cc1 [JMM128, 5-(Benzyloxy)-N-(4-(cyclobutylmethoxy)benzyl)benzo[d]isothiazol-3-amine]
pEC50 (NPEPPS): 5.35
pIC50 (HEK293T cells): 5.02
Therapeutic index (HEK293T cells): 2.12

FC(F)(F)c1ccc(CNc2nsc3ccccc23)c(C(F)(F)F)c1 [JMM061]
pEC50 (NPEPPS): 4.98
pIC50 (HEK293T cells): 4.14
Therapeutic index (HEK293T cells): 6.85

FC(F)(F)Sc1ccc(CNc2nsc3ccc(OCc4ccccc4)cc23)cc1 [JMM096]
pEC50 (NPEPPS): 4.99
pIC50 (HEK293T cells): 4.20
Therapeutic index (HEK293T cells): 6.09

COc1ccc(CNc2ccc(F)cn2)cc1OC [JMM046]
pEC50 (NPEPPS): 3.67
pIC50 (HEK293T cells): 3.32
Therapeutic index (HEK293T cells): 2.24

N#Cc1ccc(CNc2nsc3ccccc23)cc1 [JMM044]
pEC50 (NPEPPS): 4.20
pIC50 (HEK293T cells): 3.38
Therapeutic index (HEK293T cells): 6.68

FC(F)(F)c1ccc(CNc2n[nH]c3ccccc23)cc1 [JMM038]
pEC50 (NPEPPS): 4.00
pIC50 (HEK293T cells): 3.98
Therapeutic index (HEK293T cells): 1.06

FC(F)(F)c1ccc(COc2ccc(CNc3nsc4ccc(OCc5ccccc5)cc34)cc2)cc1 [JMM121, 5-(Benzyloxy)-N-(4-((4-(trifluoromethyl)benzyl)oxy)benzyl)benzo[d]isothiazol-3-amine]
pEC50 (NPEPPS): 4.80
pIC50 (HEK293T cells): 3.53
Therapeutic index (HEK293T cells): 18.30

CN(Cc1ccc(SC(F)(F)F)cc1)c1nsc2ccc(OCc3ccccc3)cc12 [JMM098]
pEC50 (NPEPPS): 4.73
pIC50 (HEK293T cells): 3.97
Therapeutic index (HEK293T cells): 5.68

COc1ccc(CNc2nsc3ccc(OCc4ccccc4)cc23)cc1 [JMM099]
pEC50 (NPEPPS): 4.33
pIC50 (HEK293T cells): 4.46
Therapeutic index (HEK293T cells): 0.74

C#Cc1cccc2c(NCc3ccc(C(F)(F)F)cc3)nsc12 [JMM064]
pEC50 (NPEPPS): 4.52
pIC50 (HEK293T cells): 4.16
Therapeutic index (HEK293T cells): 2.30

N#Cc1cccc2c(NCc3ccc(C(F)(F)F)cc3)nsc12 [JMM070]
pEC50 (NPEPPS): 3.70
pIC50 (HEK293T cells): 2.58
Therapeutic index (HEK293T cells): 13.25

Clc1ccc(CNc2nsc3ccc(OCc4ccccc4)cc23)cc1Cl [JMM090]
pEC50 (NPEPPS): 4.65
pIC50 (HEK293T cells): 4.51
Therapeutic index (HEK293T cells): 1.39

Fc1ccc(COc2ccc(CNc3nsc4ccc(OCc5ccccc5)cc34)cc2)c(F)c1 [JMM111, 5-(Benzyloxy)-N-(4-((2,4-difluorobenzyl)oxy)benzyl)benzo[d]isothiazol-3-amine]
pEC50 (NPEPPS): 4.99
pIC50 (HEK293T cells): 4.56
Therapeutic index (HEK293T cells): 2.74

COc1ccc(CN(C)c2nsc3ccccc23)cc1OC [JMM068]
pEC50 (NPEPPS): 4.23
pIC50 (HEK293T cells): 3.88
Therapeutic index (HEK293T cells): 2.22

Fc1ccccc1COc1ccc(CNc2nsc3ccc(OCc4ccccc4)cc23)cc1 [JMM118, 5-(Benzyloxy)-N-(4-((2-fluorobenzyl)oxy)benzyl)benzo[d]isothiazol-3-amine]
pEC50 (NPEPPS): 4.59
pIC50 (HEK293T cells): 4.81
Therapeutic index (HEK293T cells): 0.60

Fc1ccc(CNc2nsc3ccccc23)cc1 [JMM011]
pEC50 (NPEPPS): 3.50
pIC50 (HEK293T cells): 3.41
Therapeutic index (HEK293T cells): 1.25

c1ccc(COc2ccc(CNc3nsc4cnccc34)cc2)cc1 [JMM077]
pEC50 (NPEPPS): 5.19
pIC50 (HEK293T cells): 4.21
Therapeutic index (HEK293T cells): 9.60

CN(Cc1ccc(OCc2ccccc2)cc1)c1nsc2cnccc12 [JMM078]
pEC50 (NPEPPS): 5.64
pIC50 (HEK293T cells): 4.31
Therapeutic index (HEK293T cells): 21.66

CN(Cc1cccc2ccccc12)c1nsc2ccccc12 [JMM110, N-Methyl-N-(naphthalen-1-ylmethyl)benzo[d]isothiazol-3-amine]
pEC50 (NPEPPS): 4.37
pIC50 (HEK293T cells): 3.64
Therapeutic index (HEK293T cells): 5.40

FC(F)c1ccc(CNc2nsc3ccccc23)cc1 [JMM063]
pEC50 (NPEPPS): 3.83
pIC50 (HEK293T cells): 3.71
Therapeutic index (HEK293T cells): 1.33

Fc1ccc2snc(NCc3ccc(OCc4ccccc4)cc3)c2c1 [JMM130, N-(4-(Benzyloxy)benzyl)-5-fluorobenzo[d]isothiazol-3-amine]
pEC50 (NPEPPS): 4.20
pIC50 (HEK293T cells): 3.65
Therapeutic index (HEK293T cells): 3.56

CCCCCCN(Cc1ccc(C(F)(F)F)cc1)c1nsc2ccccc12 [JMM136, N-Hexyl-N-(4-(trifluoromethyl)benzyl)benzo[d]isothiazol-3-amine]
pEC50 (NPEPPS): 5.07
pIC50 (HEK293T cells): 4.87
Therapeutic index (HEK293T cells): 1.60

Fc1ccc(COc2ccc(CNc3nsc4ccc(OCc5ccccc5)cc34)cc2)cc1 [JMM117, 5-(Benzyloxy)-N-(4-((4-fluorobenzyl)oxy)benzyl)benzo[d]isothiazol-3-amine]
pEC50 (NPEPPS): 4.24
pIC50 (HEK293T cells): 3.96
Therapeutic index (HEK293T cells): 1.88

c1ccc(COc2ccc3snc(NCc4ccc(Oc5ccccc5)cc4)c3c2)cc1 [JMM115, 5-(Benzyloxy)-N-(4-phenoxybenzyl)benzo[d]isothiazol-3-amine]
pEC50 (NPEPPS): 4.35
pIC50 (HEK293T cells): 3.58
Therapeutic index (HEK293T cells): 5.83
